Results: the supplement of paper PMC10627819

Columns and labels:
S. aureus DSM 20231 = test: fitness (endpoint OD595 vs no drug) (fraction); higher = more growth
Procedure, shortened: (§1)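 With the first reading as background, OD595 was measured every 30 min for 14 h in 384-well plates kept at 37 °C and inoculated at OD595 0.01. TSB, LB Lennox or CY was the medium. Fitness is the optical density at the transition into stationary phase divided by the robust mean of no-drug control wells, with a cap of 1.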

S. pneumoniae D39V = test: as above
Procedure, shortened: as §1
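Further: OD595 on entry to stationary phase over no-drug wells; at most 1.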

CC(=O)Oc1ccccc1C(=O)O [Acetylsalicylic acid] + CN(N=O)C(=O)N[C@@H](C=O)[C@@H](O)[C@H](O)[C@H](O)CO [Streptozotocin]
fitness
Conditions | first compound 250 µg/mL | first compound 500 µg/mL | first compound 1000 µg/mL
S. aureus DSM 20231, partner 0.15 µg/mL | 0.778 | 0.635 | –
S. aureus DSM 20231, partner 0.3 µg/mL | 0.771 | 0.584 | 0.484
S. aureus DSM 20231, partner 0.6 µg/mL | 0.64 | 0.578 | 0.414
S. pneumoniae D39V, partner 1.2 µg/mL | 0.933 | 0.91 | –
S. pneumoniae D39V, partner 2.4 µg/mL | 0.934 | 0.9 | –
S. pneumoniae D39V, partner 4.8 µg/mL | 0.933 | 0.824 | –

CC(=O)Oc1ccccc1C(=O)O [Acetylsalicylic acid] + CN[C@@H]1[C@H](O)[C@H](NC)[C@H]2O[C@@]3(O)C(=O)C[C@@H](C)O[C@H]3O[C@@H]2[C@H]1O [Spectinomycin]
fitness
Conditions | partner 4 µg/mL | partner 8 µg/mL | partner 16 µg/mL
S. aureus DSM 20231, first compound 250 µg/mL | 0.871 | 0.866 | –
S. pneumoniae D39V, first compound 250 µg/mL | 0.934 | 0.911 | 0.817
S. pneumoniae D39V, first compound 500 µg/mL | 0.862 | 0.801 | 0.691
S. pneumoniae D39V, first compound 1000 µg/mL | 0.64 | 0.601 | 0.536

fitness, S. aureus DSM 20231, one replicate
Conditions | first compound 250 µg/mL | first compound 500 µg/mL | first compound 1000 µg/mL
partner 32 µg/mL | 0.541 | 0.631 | 0.101
partner 64 µg/mL | 0.253 | 0.32 | 0.042

CC(=O)Oc1ccccc1C(=O)O [Acetylsalicylic acid] + CN[C@H](CC(C)C)C(=O)N[C@H]1C(=O)N[C@@H](CC(N)=O)C(=O)N[C@H]2C(=O)N[C@H]3C(=O)N[C@H](C(=O)N[C@H](C(=O)O)c4cc(O)cc(O)c4-c4cc3ccc4O)[C@H](O)c3ccc(c(Cl)c3)Oc3cc2cc(c3O[C@@H]2O[C@H](CO)[C@@H](O)[C@H](O)[C@H]2O[C@H]2C[C@](C)(N)[C@H](O)[C@H](C)O2)Oc2ccc(cc2Cl)[C@H]1O [Vancomycin]
fitness
Conditions | first compound 250 µg/mL | first compound 500 µg/mL | first compound 1000 µg/mL
S. aureus DSM 20231, partner 0.1875 µg/mL | 0.871 | 0.79 | 0.592
S. aureus DSM 20231, partner 0.375 µg/mL | 0.953 | – | 0.562
S. aureus DSM 20231, partner 0.75 µg/mL | 0.947 | – | –
S. pneumoniae D39V, partner 0.03125 µg/mL | 0.956 | 0.934 | 0.839
S. pneumoniae D39V, partner 0.0625 µg/mL | 0.894 | 0.885 | 0.826
S. pneumoniae D39V, partner 0.125 µg/mL | 0.927 | 0.917 | 0.84
S. pneumoniae D39V, partner 0.25 µg/mL | 0.984 | 0.961 | 0.83
S. pneumoniae D39V, partner 0.5 µg/mL | 0.105 | 0.0715 | 0.0849

CC(=O)Oc1ccccc1C(=O)O [Acetylsalicylic acid] + CO/N=C(\C(=O)N[C@@H]1C(=O)N2C(C(=O)O)=C(COC(C)=O)CS[C@H]12)c1csc(N)n1 [Cefotaxime]
fitness
Conditions | partner 0.0018 µg/mL | partner 0.0035 µg/mL | partner 0.007 µg/mL | partner 0.039 µg/mL | partner 0.078 µg/mL | partner 0.156 µg/mL | partner 0.312 µg/mL
S. aureus DSM 20231, first compound 250 µg/mL | – | – | – | 0.706 | 0.695 | 0.641 | 0.605
S. aureus DSM 20231, first compound 500 µg/mL | – | – | – | 0.614 | 0.608 | 0.561 | 0.507
S. aureus DSM 20231, first compound 1000 µg/mL | – | – | – | 0.509 | 0.443 | 0.343 | 0.148
S. pneumoniae D39V, first compound 250 µg/mL | 0.984 | 0.967 | 0.936 | – | – | – | –
S. pneumoniae D39V, first compound 500 µg/mL | ≥ 1 | 0.992 | 0.962 | – | – | – | –
S. pneumoniae D39V, first compound 1000 µg/mL | 0.97 | 0.89 | 0.823 | – | – | – | –
